Converted amounts (≈) assume the structure as drawn.

In test [1] the test system is Enterococcus faecalis. The test can be described thus: Antibacterial activity against Enterococcus faecalis MTCC 439 assessed as diameter of zone of inhibition at 500 ug/ml by agar disk diffusion method. It counts as functional. The note with it: read-out: DIZ.
Test [2] concerns Pseudomonas aeruginosa. The test can be described thus: Antibacterial activity against Pseudomonas aeruginosa MTCC 2453 assessed as diameter of zone of inhibition at 500 ug/ml by agar disk diffusion method. The class given is functional. Particulars: read-out: DIZ. In general terms: In agar diffusion tests the substance spreads into inoculated agar from a disc or well.
Test [3] has as its system Salmonella typhi. The test can be described thus: Antibacterial activity against Salmonella typhi assessed as diameter of zone of inhibition at 500 ug/ml by agar disk diffusion method. It counts as functional, Salmonella enterica subsp. enterica serovar Typhi. Particulars: Salmonella enterica, read-out: DIZ.
Test [4] deals with Bacillus subtilis. The test can be described thus: Antibacterial activity against Bacillus subtilis MTCC 736 assessed as diameter of zone of inhibition at 500 ug/ml by agar disk diffusion method. The class given is functional. The note with it: read-out: DIZ.
For test [5], the system named is Escherichia coli. The test can be described thus: Antibacterial activity against Escherichia coli MTCC 443 assessed as diameter of zone of inhibition at 500 ug/ml by agar disk diffusion method. It counts as functional. Particulars: read-out: DIZ.
Test [6] deals with Staphylococcus aureus. The test can be described thus: Antibacterial activity against Staphylococcus aureus MTCC 902 assessed as diameter of zone of inhibition at 500 ug/ml by agar disk diffusion method. The note with it: read-out: DIZ. It counts as functional.
Test [7] relates to Escherichia coli. The test can be described thus: Antibacterial activity against Escherichia coli MTCC 443 assessed as inhibition of bacterial growth incubated overnight by serial dilution based spectrophotometer. It counts as functional.
The subject of test [8] is Pseudomonas aeruginosa. The test can be described thus: Antibacterial activity against Pseudomonas aeruginosa MTCC 2453 assessed as inhibition of bacterial growth incubated overnight by serial dilution based spectrophotometer. The class given is functional.
The subject of test [9] is Escherichia coli. The test can be described thus: Ratio of MBC for antibacterial activity against Escherichia coli MTCC 443 to MIC for bactericidal activity against Escherichia coli MTCC 443. It counts as functional.
Test [10] concerns Enterococcus faecalis. The test can be described thus: Antibacterial activity against Enterococcus faecalis MTCC 439 assessed as inhibition of bacterial growth incubated overnight by serial dilution based spectrophotometer. The class given is functional.
Test [11] deals with Enterococcus faecalis. The test can be described thus: Ratio of MBC for antibacterial activity against Enterococcus faecalis MTCC 439 to MIC for bactericidal activity against Enterococcus faecalis MTCC 439. It counts as functional.
Test [12] relates to Enterococcus faecalis. The test can be described thus: Bactericidal activity against Enterococcus faecalis MTCC 439 assessed as inhibition of bacterial growth incubated overnight. It counts as functional.
In test [13] the test system is Bacillus subtilis. The test can be described thus: Bactericidal activity against Bacillus subtilis MTCC 736 assessed as inhibition of bacterial growth incubated overnight. It counts as functional.
Test [14] relates to Staphylococcus aureus. The test can be described thus: Antibacterial activity against Staphylococcus aureus MTCC 902 assessed as inhibition of bacterial growth incubated overnight by serial dilution based spectrophotometer. It counts as functional.
The test system of test [15] is Salmonella typhi. The test can be described thus: Antibacterial activity against Salmonella typhi assessed as inhibition of bacterial growth incubated overnight by serial dilution based spectrophotometer. It counts as functional, Salmonella enterica subsp. enterica serovar Typhi. Particulars: Salmonella enterica.
Test [16] has as its system Escherichia coli. The test can be described thus: Bactericidal activity against Escherichia coli MTCC 443 assessed as inhibition of bacterial growth incubated overnight. The class given is functional.
The test system of test [17] is Pseudomonas aeruginosa. The test can be described thus: Ratio of MBC for antibacterial activity against Pseudomonas aeruginosa MTCC 2453 to MIC for bactericidal activity against Pseudomonas aeruginosa MTCC 2453. The class given is functional.
Test [18] relates to Bacillus subtilis. The test can be described thus: Antibacterial activity against Bacillus subtilis MTCC 736 assessed as inhibition of bacterial growth incubated overnight by serial dilution based spectrophotometer. It counts as functional.
For test [19], the system named is Staphylococcus aureus. The test can be described thus: Bactericidal activity against Staphylococcus aureus MTCC 902 assessed as inhibition of bacterial growth incubated overnight. It counts as functional.
Test [20] has as its system Pseudomonas aeruginosa. The test can be described thus: Bactericidal activity against Pseudomonas aeruginosa MTCC 2453 assessed as inhibition of bacterial growth incubated overnight. It counts as functional.

For the molecule `O=[N+]([O-])c1cccc(/C=N/CCNc2ccnc3cc(Cl)ccc23)c1`, the zone of inhibition at 500 µg/mL was found to be 8 mm in the test on Enterococcus faecalis [1]; 6 mm in the test on Pseudomonas aeruginosa [2]; 9 mm in the test with Salmonella typhi [3]; 6 mm in the test on Bacillus subtilis [4]; 9 mm with Escherichia coli [5]; 8 mm in the test with Staphylococcus aureus [6].

`Clc1ccc2c(NCC/N=C/c3ccc(Br)cc3)ccnc2c1`: the zone of inhibition at 500 µg/mL in the test with Enterococcus faecalis [1] worked out at 8 mm.

On to `Clc1ccc2c(NCC/N=C/c3cccs3)ccnc2c1`, for which the zone of inhibition at 500 µg/mL amounted to 8 mm in the test with Enterococcus faecalis [1]; 6 mm in the test with Pseudomonas aeruginosa [2]; 8 mm with Salmonella typhi [3]; 8 mm in the test with Bacillus subtilis [4]; 9 mm in the test with Escherichia coli [5]; 7 mm with Staphylococcus aureus [6].

Turning to `Oc1ccc(/C=N/CCNc2ccnc3cc(Cl)ccc23)cc1`, the zone of inhibition at 500 µg/mL stood at 6 mm in the test with Enterococcus faecalis [1]; 10 mm in the test with Pseudomonas aeruginosa [2]; 8 mm in the test on Salmonella typhi [3]; 8 mm in the test with Bacillus subtilis [4]; 10 mm with Escherichia coli [5]; 9 mm with Staphylococcus aureus [6].

With `CN(C)c1ccc(/C=N/CCNc2ccnc3cc(Cl)ccc23)cc1`, the zone of inhibition at 500 µg/mL amounted to 8 mm in the test on Enterococcus faecalis [1]; 7 mm with Pseudomonas aeruginosa [2]; 7 mm with Salmonella typhi [3]; 8 mm in the test on Bacillus subtilis [4]; 10 mm in the test with Escherichia coli [5]; 9 mm in the test with Staphylococcus aureus [6].

Take `O=C1Nc2cc(F)ccc2/C1=N/CCNc1ccnc2cc(Cl)ccc12`: the zone of inhibition at 500 µg/mL in the test on Salmonella typhi [3] and in the test with Staphylococcus aureus [6] was 7 mm each time.

Turning to `Clc1ccc(/C=N/CCNc2ccnc3cc(Cl)ccc23)cc1`, the zone of inhibition at 500 µg/mL in the test on Enterococcus faecalis [1] was 6 mm; in the test on Pseudomonas aeruginosa [2], 7 mm; in the test with Salmonella typhi [3], 6 mm; in the test with Bacillus subtilis [4] it was 7 mm; with Escherichia coli [5], 6 mm.

As a reminder, the MIC is the lowest concentration that inhibits growth of the organism. For orientation: MBC means the smallest concentration meeting the test's criterion for killing. In the case of `Clc1ccc2c(NCC/N=C/c3ccccn3)ccnc2c1`, the MIC was 256 µg/mL (≈ 824 µM) with Escherichia coli [7]; 512 µg/mL (≈ 1650 µM) in the test on Pseudomonas aeruginosa [8]; 512 µg/mL (≈ 1650 µM) in the test on Enterococcus faecalis [10]; 512 µg/mL (≈ 1650 µM) with Staphylococcus aureus [14]; above 512 µg/mL with Salmonella typhi [15]; 512 µg/mL (≈ 1650 µM) with Bacillus subtilis [18]. The zone of inhibition at 500 µg/mL in the test on Enterococcus faecalis [1] was 8 mm; in the test with Pseudomonas aeruginosa [2], 9 mm; in the test on Salmonella typhi [3], 7 mm; with Bacillus subtilis [4], 9 mm; in the test on Escherichia coli [5] it was 11 mm; with Staphylococcus aureus [6] it was 8 mm. For the same molecule, the Ratio worked out at 2 in the test on Escherichia coli [9], 1 with Enterococcus faecalis [11] and 1 in the test on Pseudomonas aeruginosa [17]. Besides, the MBC with Enterococcus faecalis [12] was 512 µg/mL (≈ 1650 µM); in the test with Bacillus subtilis [13], above 512 µg/mL; with Escherichia coli [16], 512 µg/mL (≈ 1650 µM); in the test with Staphylococcus aureus [19] it was above 512 µg/mL; with Pseudomonas aeruginosa [20] it was 512 µg/mL (≈ 1650 µM).

Regarding `COc1ccc(/C=N/CCNc2ccnc3cc(Cl)ccc23)cc1OC`, the zone of inhibition at 500 µg/mL in the test with Enterococcus faecalis [1] is 7 mm; in the test on Pseudomonas aeruginosa [2], 7 mm; with Salmonella typhi [3] it was 8 mm; in the test on Bacillus subtilis [4], 7 mm; with Escherichia coli [5], 8 mm; in the test on Staphylococcus aureus [6], 8 mm.

Consider `FC(F)(F)c1ccc(/C=N/CCNc2ccnc3cc(Cl)ccc23)cc1`, for which the zone of inhibition at 500 µg/mL worked out at 8 mm in the test with Enterococcus faecalis [1]; 8 mm in the test on Pseudomonas aeruginosa [2]; 9 mm in the test with Salmonella typhi [3]; 7 mm with Bacillus subtilis [4]; 10 mm in the test on Escherichia coli [5]; 7 mm in the test with Staphylococcus aureus [6].

Take `O=C1Nc2ccc(Br)cc2/C1=N/CCNc1ccnc2cc(Cl)ccc12`: the zone of inhibition at 500 µg/mL in the test with Salmonella typhi [3] and in the test on Escherichia coli [5] was 11 mm each time.

Take `O=C1Nc2ccccc2/C1=N/CCNc1ccnc2cc(Cl)ccc12`: the zone of inhibition at 500 µg/mL in the test with Bacillus subtilis [4] stood at 10 mm; in the test on Escherichia coli [5], 11 mm.

The values are drawn from ChEMBL document CHEMBL6078713, “Synthesis and mechanistic studies of 4-aminoquinoline-Isatin molecular hybrids and Schiff's bases as promising antimicrobial agents” (Eur J Med Chem, 2025).
